Source: patent publication US9676720B2, “Substituted biaryl compound” (UBE INDUSTRIES, LTD., priority 2013, dated 2017)

The compounds below were run on mouse pulmonary fibrosis models (bleomycin) (assay: Test for inhibition of pulmonary fibrosis in mouse (bleomycin model, lung hydroxyproline)). Details: dose of 0.3 mg/kg, intratracheal administration twice per day for 28 days.
Assay type: in vivo, ICR mice
Description: Test for inhibition effect of pulmonary fibrosis using mouse was performed by partially modifying the method of Oku et al. (European Journal of Pharmacology, 590, 400 (2008)). […] These models were used as a bleomycin control group and a test compound administration group. Similarly, a normal group was subjected to administration of saline for 5 days. For the test, each group used 7 or more mice. The test compound solution for the administration was prepared by dissolving the test substance to the equimolar amount of 0.1 mol/L aqueous sodium hydroxide solution, and then neutralizing by adding a phosphate buffer solution (PBS) which was a medium. The test compound was administered via intratracheal administration twice per day from the start date of the test, for 28 days. For the normal group and bleomycin control group, the medium was administered similarly via intratracheal administration. For the intratracheal administration, the MicroSprayerTM (IA-1C-M, manufactured by PennCentury) was used. On the day following the completion of 28-day administration, the mice were left bleeding to die while subjecting the mice for inhalation anesthesia, to collect the lungs. […] The amount of hydroxyproline (HYP) in the lung hydrolysis solution, which is an indicator of collagen accumulation, was measured by the method of Woessner et al. (Archives of Biochemistry and Biophysics, 93, 440 (1961)). […] After cooling, 200 μL of the colored solution was placed on a microplate, and the absorbance (measurement wavelength: 570 nm, reference wavelength: 620 nm) was measured using a plate reader (SPECTRA FLOUR, manufactured by Tecan). A HYP solution having a specified concentration was reacted in the same manner to create a calibration curve, and the HYP concentration of each sample was calculated. From the calculated HYP concentration, the amount of HYP in the lung per 100 g of body weight was calculated. The inhibiting rate of HYP formation in the lung upon administration of the test compound was calculated using the formula described below. […]

| SMILES | Inhibiting rate of HYP formation in the lung [%] |
| --- | --- |
| CCOc1cccc(-c2ccc(CN(Cc3cccc(NCC(=O)O)n3)S(=O)(=O)c3ccccc3)cc2)c1 [Example 10, {6-[(Benzenesulfonyl)(3′-ethoxybiphenyl-4-ylmethyl)aminomethyl]pyridin-2-ylamino}acetic acid] | ≥ 70 |
| CC#Cc1cccc(-c2ccc(CN(Cc3cccc(NCC(=O)O)n3)S(=O)(=O)c3ccccn3)cc2)c1 [Example 4, (6-{[3′-(1-Propynyl)biphenyl-4-ylmethyl](pyridin-2-ylsulfonyl)aminomethyl}-pyridin-2-ylamino)acetic acid] | ≥ 70 |
| CC#Cc1cccc(-c2ccc(CN(Cc3cccc(NCC(=O)O)n3)S(=O)(=O)c3ccccc3)cc2)c1 [Example 16, (6-{(Benzenesulfonyl)[3′-(1-propynyl)biphenyl-4-ylmethyl]aminomethyl}-pyridin-2-ylamino)acetic acid] | ≥ 70 |

These compounds were tested on Pulmonary fibroblasts derived from a human fetus (IMR90) (assay: Test for inhibition of pulmonary fibroblast proliferation (BrdU incorporation)). Details: Homo sapiens, IMR-90, read-out: IC50 value (nM) of inhibition effect of pulmonary fibroblast proliferation.
Assay type: cell-based
Description: Measurement of inhibition effect of pulmonary fibroblast proliferation was performed by modifying the method of Huang et al. (American Journal of Respiratory Cell and Molecular Biology, 39, 482 (2008)). Pulmonary fibroblasts derived from a human fetus (IMR90, purchased from American Type Culture Collection) were cultured in DMEM medium containing 10% FBS and seeded at 1×10^4 cells/well of a 96-well plate. After culturing for approximately 8 hours in a carbon dioxide incubator, the medium was replaced with FBS-free DMEM medium and the culturing was performed for one night. On the following day, the medium was replaced with a new FBS-free DMEM medium, and then a test compound dissolved in dimethyl sulfoxide (final concentration: 0.1%) and FGF (final concentration: 10 ng/mL, manufactured by Wako Pure Chemical Industries, Ltd.) were added thereto and allowed to stand undisturbed in a carbon dioxide incubator. After 22 hours, a BrdU labeling solution (manufactured by Roche) was added and culturing was performed for another 2 hours. After the completion of the culturing, amount of BrdU incorporation was measured using Cell Proliferation ELISA BrdU (colorimetric) (manufactured by Roche). The concentration of the test compound required to inhibit BrdU incorporation to 50% (IC50 value) was calculated by non-linear regression of the test compound concentration and the amount of BrdU incorporation using EXSAS (Ver. 8.0.0, manufactured by Arm Systex).

| SMILES | IC50 [nM] |
| --- | --- |
| CCOc1cccc(-c2ccc(CN(Cc3cccc(NCC(=O)O)n3)S(=O)(=O)c3cccnc3)cc2)c1 [Example 9, {6-[(3′-Ethoxybiphenyl-4-ylmethyl)(pyridin-3-ylsulfonyl)aminomethyl]-pyridin-2-ylamino}acetic acid] | 0.051 |
| CCOc1cccc(-c2ccc(CN(Cc3cccc(NCC(=O)O)n3)S(=O)(=O)c3ccccc3)cc2)c1 [Example 10, {6-[(Benzenesulfonyl)(3′-ethoxybiphenyl-4-ylmethyl)aminomethyl]pyridin-2-ylamino}acetic acid] | 0.035 |
| O=C(O)CNc1cccc(CN(Cc2ccc(-c3ccc(F)cc3)cc2)S(=O)(=O)c2cccnc2)n1 [Comparative example 3, {6-[(4′-Fluorobiphenyl-4-ylmethyl)(pyridin-3-ylsulfonyl)aminomethyl]-pyridin-2-ylamino}acetic acid] | > 1 |
| O=C(O)CNc1cccc(CN(Cc2ccc(-c3ccccc3)cc2)S(=O)(=O)c2cccnc2)n1 [Comparative example 2, {6-[(Biphenyl-4-ylmethyl)(pyridin-3-ylsulfonyl)aminomethyl]pyridin-2-ylamino}acetic acid] | 0.97 |
| CC#Cc1ccccc1-c1ccc(CN(Cc2cccc(NCC(=O)O)n2)S(=O)(=O)c2ccccn2)cc1 [Comparative example 16] | 0.5 |
| CC#Cc1cccc(-c2ccc(CN(Cc3cccc(NCC(=O)O)n3)S(=O)(=O)c3cccnc3)cc2)c1 [Example 6, (6-{[3′-(1-Propynyl)biphenyl-4-ylmethyl](pyridin-3-ylsulfonyl)aminomethyl}-pyridin-2-ylamino)acetic acid] | 0.045 |
| O=C(O)CNc1cccc(CN(Cc2ccc(-c3ccccc3)cc2)S(=O)(=O)c2ccccn2)n1 [Comparative example 1] | > 1 |
| CC#Cc1ccc(-c2ccc(CN(Cc3cccc(NCC(=O)O)n3)S(=O)(=O)c3ccccn3)cc2)cc1 [Comparative example 17] | > 1 |
| CC#Cc1cccc(-c2ccc(CN(Cc3cccc(NCC(=O)O)n3)S(=O)(=O)c3cccs3)cc2)c1 [Example 14, (6-{[3′-(1-Propynyl)biphenyl-4-ylmethyl](thiophen-2-ylsulfonyl)-aminomethyl}pyridin-2-ylamino)acetic acid] | 0.011 |
| O=C(O)CNc1cccc(CN(Cc2ccc(-c3ccc(Cl)cc3)cc2)S(=O)(=O)c2cccnc2)n1 [Comparative example 4, {6-[(4′-Chlorobiphenyl-4-ylmethyl)(pyridin-3-ylsulfonyl)aminomethyl]-pyridin-2-ylamino}acetic acid] | > 1 |
| CC#Cc1cccc(-c2ccc(CN(Cc3cccc(NCC(=O)O)n3)S(=O)(=O)c3ccccn3)cc2)c1 [Example 4, (6-{[3′-(1-Propynyl)biphenyl-4-ylmethyl](pyridin-2-ylsulfonyl)aminomethyl}-pyridin-2-ylamino)acetic acid] | 0.016 |
| CC#Cc1cccc(-c2ccc(CN(Cc3cccc(NCC(=O)O)n3)S(=O)(=O)c3cccc(F)c3)cc2)c1 [Example 19, (6-{(3-Fluorobenzenesulfonyl)[3′-(1-propynyl)biphenyl-4-ylmethyl]-aminomethyl}pyridin-2-ylamino)acetic acid] | 0.026 |
| CC#Cc1cccc(-c2ccc(CN(Cc3cccc(NCC(=O)O)n3)S(=O)(=O)c3ccccc3)cc2)c1 [Example 16, (6-{(Benzenesulfonyl)[3′-(1-propynyl)biphenyl-4-ylmethyl]aminomethyl}-pyridin-2-ylamino)acetic acid] | 0.0088 |

Same assay, conditions: Homo sapiens, IMR-90; IMR90; FGF 10 ng/mL; BrdU incorporation; read-out: IC50 value (nM) of inhibition effect of pulmonary fibroblast proliferation

| SMILES | IC50 [nM] |
| --- | --- |
| CCC=Cc1cccc(-c2ccc(CN(Cc3cccc(NCC(=O)O)n3)S(=O)(=O)c3ccccn3)cc2)c1 [Comparative example 9, (6-{[3′-(1-Butenyl)biphenyl-4-ylmethyl](pyridin-2-ylsulfonyl)aminomethyl}-pyridin-2-ylamino)acetic acid] | 0.75 |
| CCc1cccc(-c2ccc(CN(Cc3cccc(NCC(=O)O)n3)S(=O)(=O)c3ccccn3)cc2)c1 [Comparative example 7] | 0.88 |
| CCOc1ccc(-c2ccc(CN(Cc3cccc(NCC(=O)O)n3)S(=O)(=O)c3ccccn3)cc2)cc1 [Comparative example 14] | > 1 |
| CC=Cc1cccc(-c2ccc(CN(Cc3cccc(NCC(=O)O)n3)S(=O)(=O)c3ccccn3)cc2)c1 [Example 2] | 0.035 |
| Cc1cccc(-c2ccc(CN(Cc3cccc(NCC(=O)O)n3)S(=O)(=O)c3ccccn3)cc2)c1 [Comparative example 6] | 0.58 |
| Cc1cnc(-c2ccc(CN(Cc3cccc(NCC(=O)O)n3)S(=O)(=O)c3ccccn3)cc2)s1 [Comparative example 5] | > 1 |
| CCCc1cccc(-c2ccc(CN(Cc3cccc(NCC(=O)O)n3)S(=O)(=O)c3ccccn3)cc2)c1 [Comparative example 8] | 0.34 |
| CCOc1ccccc1-c1ccc(CN(Cc2cccc(NCC(=O)O)n2)S(=O)(=O)c2ccccn2)cc1 [Comparative example 13] | > 1 |
| CCOc1cccc(-c2ccc(CN(Cc3cccc(NCC(=O)O)n3)S(=O)(=O)c3ccccn3)cc2)n1 [Example 12, (6-{[4-(6-Ethoxypyridin-2-yl)benzyl](pyridin-2-ylsulfonyl)aminomethyl}-pyridin-2-ylamino)acetic acid] | 0.037 |
| C=CCc1cccc(-c2ccc(CN(Cc3cccc(NCC(=O)O)n3)S(=O)(=O)c3ccccn3)cc2)c1 [Comparative example 10] | 0.56 |
| COc1cccc(-c2ccc(CN(Cc3cccc(NCC(=O)O)n3)S(=O)(=O)c3ccccn3)cc2)c1 [Comparative example 11] | 0.2 |
| CCOc1cccc(-c2ccc(CN(Cc3cccc(NCC(=O)O)n3)S(=O)(=O)c3ccccn3)cc2)c1 [Example 7, {6-[(3′-Ethoxybiphenyl-4-ylmethyl)(pyridin-2-ylsulfonyl)aminomethyl]-pyridin-2-ylamino}acetic acid] | 0.028 |
| CCOc1cccc(-c2ccc(CN(Cc3cccc(NCC(=O)O)n3)S(=O)(=O)c3cccs3)cc2)c1 [Example 11, {6-[(3′-Ethoxybiphenyl-4-ylmethyl)(thiophen-2-ylsulfonyl)aminomethyl]-pyridin-2-ylamino}acetic acid] | 0.049 |

Same assay, conditions: IMR90; FGF 10 ng/mL; BrdU incorporation; read-out: IC50 value (nM) of inhibition effect of pulmonary fibroblast proliferation

| SMILES | IC50 [nM] |
| --- | --- |
| CC#Cc1cccc(-c2ccc(CN(Cc3cccc(NCC(=O)O)n3)S(=O)(=O)c3ccsc3)cc2)c1 [Example 18] | 0.0042 |

What follows are compounds tested against human EP2 receptor (Homo sapiens (Human), UniProt P43116) (assay: Measurement of EP2 receptor binding action). Details: membrane fraction of HEK293 cells expressing human EP2 receptor; [3H]prostaglandin E2 10 nM.
Chain of human EP2 receptor (P43116 whole entry): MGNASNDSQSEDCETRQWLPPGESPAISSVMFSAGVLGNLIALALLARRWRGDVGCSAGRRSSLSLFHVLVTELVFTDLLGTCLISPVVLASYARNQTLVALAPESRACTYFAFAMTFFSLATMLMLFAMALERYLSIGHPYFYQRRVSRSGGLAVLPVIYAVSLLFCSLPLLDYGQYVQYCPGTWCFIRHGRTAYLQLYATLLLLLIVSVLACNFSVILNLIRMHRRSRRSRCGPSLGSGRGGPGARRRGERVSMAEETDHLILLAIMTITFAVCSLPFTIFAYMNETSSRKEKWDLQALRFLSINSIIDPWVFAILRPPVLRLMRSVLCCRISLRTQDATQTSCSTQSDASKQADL
Description: The membrane fraction was recovered on glass fiber filter paper (GF/B, manufactured by Whatman) using a cell harvester (M30R, manufactured by Brandel), and after washing with a buffer solution (10 mM MES-KOH (pH 6.0), 10 mM MgCl2), radioactivity was measured with a liquid scintillation analyzer (2000CA, manufactured by Packard). […] Ki=IC50/(1+([^3H]prostaglandin E2 concentration/Kd))
Note that the dissociation constant (Kd value) was calculated by Scatchard analysis.

| SMILES | Ki [nM] |
| --- | --- |
| CCC=Cc1cccc(-c2ccc(CN(Cc3cccc(NCC(=O)O)n3)S(=O)(=O)c3ccccn3)cc2)c1 [Comparative example 9, (6-{[3′-(1-Butenyl)biphenyl-4-ylmethyl](pyridin-2-ylsulfonyl)aminomethyl}-pyridin-2-ylamino)acetic acid] | 1.5 |
| CC#Cc1cccc(-c2ccc(CN(Cc3cccc(NCC(=O)O)n3)S(=O)(=O)c3ccsc3)cc2)c1 [Example 18] | 0.99 |
